Results from US6235516A, “Biocatalysts with amine acylase activity” (Novartis AG, priority 1996, dated 2001).

How the values were obtained:
K1/1 acylase = assay: Hydrolysis of racemic 2-acetylamino-1-phenyl-4-pentene with the purified K1/1 acylase; type: biochemical, Rhodococcus globerulus K1/1
Experimental: To 50 ml of a 10 mM solution of racemic 2-acetylamino-1-phenyl-4-pentene in phosphate buffer (pH 7.0) 7 ml of the K1/1 acylase are added (0.456 U), which has been purified by HIC and concentrated by ultrafiltration (example 26.5 and 26.6). The deacylation is performed at 30° C. under continuous shaking at 200 rpm. The reaction is monitored by HPLC (see example 1), and after the conversion is about 50% the solution is acidified to pH 2 with 1 N HCl and extracted three times with one volume of dichloromethane to obtain the unconverted amides. The aqueous phase is neutralized with 1 N NaOH and extracted again three times with dichloromethane to recover the formed amines. Both organic phases are dried with MgSO4, filtered and the solvent is distilled off. The amides are used directly for optical purity determinations via HPLC under the following conditions: Chiralcel OJ column, hexane/isopropanol 9:1 as the eluent, flow rate 1 ml/min., detection at 208 nm. The obtained amines are converted to the acetamides by adding […] to each sample before being also analyzed for the optical purity by HPLC.

Strain K1/1 = assay: Growth and induction of the acylase of Rhodococcus globerulus K1/1, variation of the inducer; type: cell-based; details: for induction of acylase formation by strain K1/1: racemic inducer, 0-9.84 mM
Experimental: Strain K1/1 is grown in shake flask culture using the medium from example 21, but with 2 g/l of each yeast extract and peptone, with racemic 2-acetylamino-1-phenyl-4-pentene or alternatively racemic N-acetyl-1-phenylethylamine as the inducer in concentrations of 0, 4.92, 7.38, and 9.84 mM.

[1] = test system: whole cells of Rhodococcus globerulus K1/1; assay: Amide hydrolysis with whole cells of Rhodococcus globerulus K1/1; type: cell-based
Text: (§1) When the conversion reaches about 50% (checked by HPLC) the solutions are acidified to pH 2 by adding 1 N HCl and extracted three times with dichloromethane to obtain the unconverted amides. The aqueous layers are neutralized with 1 N NaOH solution and extracted again three times with dichloromethane to recover the formed amines. Both organic phases are dried with MgSO4, filtered and the solvent is distilled off. The amides are used directly for optical purity determinations (HPLC), whereas the obtained amines are converted to the acetamides by adding 100 μl triethylamine and 100 μl acetic anhydride to each sample and then analyzed for the optical purity by "chiral" HPLC.
To 50 ml of a 10 mM solution in phosphate buffer pH 7.0 of each racemic amide listed in table 16, whole cells of Rhodococcus globerulus K1/1 (each obtained from 50 ml shake flask medium (see example 21), OD660 =2.0) is added. The deacetylation is performed at 30° C. under continuous shaking (200 rpm). The reaction is monitored by HPLC and after the conversion is about 50% the reaction mixtures are worked up in the same manner as described in example 22.

[2] = test system: acylase from Arthrobacter aurescens Ac5R; assay: Enzymatic hydrolysis of racemic amides with highly purified acylase from Arthrobacter aurescens Ac5R; type: biochemical
Experimental: (§2) To 10 ml of a 20 mM solution of each of the racemic amides shown below 1 in 0.1 M phosphate buffer pH 7.0, 5 ml (1.3 units) of the enzyme is added and the solutions are shaken at 100 rpm and 30° C. [drawing 10] [drawing 11]
as §1

[3] = molecular target: T1, acylase from Rhodococcus equi Ac6 (Rhodococcus (subgen. Prescottella) equi, UniProt A0A3S5Y3Z2); assay: Enzymatic hydrolysis of racemic amides with partially purified acylase from Rhodococcus equi Ac6; type: biochemical; design: e.e. (R)-Amide: unit not given here
T1 construct: N-terminus […]
T1 sequence (A0A3S5Y3Z2 1-487): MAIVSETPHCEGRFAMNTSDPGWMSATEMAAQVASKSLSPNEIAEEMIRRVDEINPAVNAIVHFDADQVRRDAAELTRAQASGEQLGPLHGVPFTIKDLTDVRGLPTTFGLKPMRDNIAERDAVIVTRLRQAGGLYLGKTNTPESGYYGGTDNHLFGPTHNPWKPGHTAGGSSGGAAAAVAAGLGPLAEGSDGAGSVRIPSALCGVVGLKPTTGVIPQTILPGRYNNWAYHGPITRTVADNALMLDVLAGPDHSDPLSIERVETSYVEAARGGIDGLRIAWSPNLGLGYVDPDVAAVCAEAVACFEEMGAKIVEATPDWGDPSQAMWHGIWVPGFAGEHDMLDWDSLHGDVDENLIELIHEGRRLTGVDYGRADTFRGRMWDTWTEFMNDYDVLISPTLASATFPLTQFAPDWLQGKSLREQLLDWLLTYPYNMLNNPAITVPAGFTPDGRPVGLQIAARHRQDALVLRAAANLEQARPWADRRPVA
Experimental: as §2, §1
The experiments are carried out in the same manner as described in example 22.

[4] = test system: whole cells of Rhodococcus globerulus K1/1; assay: Hydrolysis of racemic 2-acetylamino-1(4-chlorophenyl)-4-pentene with whole cells of Rhodococcus globerulus K1/1; type: cell-based; details: 80 g racemic amide in 20 l, 21 h at 28° C.
Experimental: Strain K1/1 is grown according to example 3 in a 30 l fermenter filled with 20 l of basic medium containing 1 g/l of racemic N-acetyl-1-phenylethylamine. The cells are harvested by continuous centrifugation and resuspended in the reaction mixture, which is prepared by adding a solution of 80 g racemic 2-acetylamino-1(4-chlorophenyl)-4-pentene in 500 ml methanol to 20 l of potassium phosphate buffer, 69 mM, pH 7. After stirring for 21 h at 28° C. and 500 rpm the amine formed and the unreacted amide are separated and analyzed for their optical purity analogously to the procedure given in example 30.

CC(=O)N[C@@H](C)c1ccccc1 = assay: Dependence of the reaction velocity of the Ac6-acylase on substrate concentration (Km); type: biochemical, Rhodococcus equi Ac6; details: other: purified Ac6-acylase, pH 7, 30° C., 10 min, nonlinear regression
Experimental: Activity assay under the standard conditions given in example 1 with an incubation time of 10 min. are performed using different initial concentrations of (S)-N-acetyl-1-phenylethylamine and the final Ac6-acylase preparation obtained in example 4c, which has been diluted 5 fold with 69 mM potassium phosphate buffer, pH 7, as the enzyme source. The Michaelis constant Km is calculated from the substrate concentrations and the corresponding reaction velocities by numerical nonlinear regression with the program "SigmaPlot for Windows" (Jandel Scientific GmbH, Schimmelbusch, Germany) to the formula: v=Vm×S/(S+Km). v: reaction velocity (U/ml=mM/min.), Vm : maximum reaction velocity (U/ml), S=(S)-N-acetyl-1-phenylethylamine concentration (mM).

[5] = enantioselectivity of the hydrolysis
[6] = formed amine, analysed as acetamide

## C=CCC(Cc1ccccc1)NC(C)=O (racemic) [2-acetylamino-1-phenyl-4-pentene]
K1/1 acylase; 10 mM racemic substrate, 0.456 U K1/1 acylase, pH 7.0, 30° C.
  conversion: 50.3%
K1/1 acylase; at 50.3% conversion
  E-value: 74.9
Strain K1/1
  induction of acylase formation by strain K1/1: inducing substance

## CC(=O)NC(C)c1ccccc1 (racemic) [Substrate 1a, N-acetyl 1-phenylethylamine]
[1]; [5]
  Selectivity E: > 500
[1]; [6]
  e.e. (S)-Amine: 97.5
[1]; unconverted amide, chiral HPLC
  e.e. (R)-Amide: > 99.9
Strain K1/1; 7.38 and 9.84 mM
  effect on growth of strain K1/1: do not inhibit the growth
Strain K1/1
  induction of acylase formation by strain K1/1: inducing substance
[2]; [5]
  Selectivity E: > 500
[2]; formed amine, analysed as acetamide by chiral HPLC
  e.e. (R)-Amine: 98.2
[2]; unconverted amide, chiral HPLC
  e.e. (S)-Amide: > 99.9
[3]; [5]
  Selectivity E: 350
[3]; [6]
  e.e. (S)-Amine: 96.8
[3]; unconverted amide, chiral HPLC
  e.e. (R)-Amide: 99.3

## C=CC[C@H](Cc1ccc(Cl)cc1)NC(C)=O [(R)-2-acetylamino-1(4-chlorophenyl)-4-pentene]
[4]
  ee of the unreacted amide: 98.5 % ee

## C=CC[C@H](N)Cc1ccc(Cl)cc1 [(S)-2-amino-1(4-chlorophenyl)-4-pentene]
[4]
  ee of the formed amine: > 99.9 % ee

## Ac6-acylase (Rhodococcus equi 103S)
CC(=O)N[C@@H](C)c1ccccc1
  Km: 600 µM
